Laboratory results from article PMC10675340, “Preparation, Radiolabeling with ^68Ga/^177Lu and Preclinical Evaluation of Novel Angiotensin Peptide Analog: A New Class of Peptides for Breast Cancer Targeting” (Pharmaceuticals, 2023).
Where a SMILES comes first, the peptide text is derived from it. [ ]: non-standard residue; d: D form. The star is where a group is joined. DOTA = O=C(O)CN1CCN(CC(=O)O)CCN(CC(=O)*)CCN(CC(=O)O)CC1; βAla = NCCC(=O)O

What was measured:
[1] = system: MDA-MB-231 tumor xenografts; assay: In vivo tumor targeting and biodistribution in nude mice bearing MDA-MB-231 xenografts; set-up: species or system mouse
Protocol: (with 43% wash away from the tumors over 2 h). The amount of radioactivity found for the ^68Ga-labeled AngII peptide analog in the tumors was always more than the radioactivity detected in the blood and muscle. A general pattern of better tumor-to-blood and tumor-to-muscle uptake ratios was noticed over time for ^68Ga-labeled AngII peptide.
In vivo, tumor uptake was conducted as reported previously. In summary, ~5 million MDA-MB-231 cells in 200 µL sterile PBS were implanted subcutaneously into each nude mouse. Once tumor growth became sufficient (~50–500 mg), tumor uptake and organ biodistribution were carried out after injecting the radiolabeled AngII peptide. The percent of the injected dose per gram in the tumors was determined by using a custom-designed Quattro Pro X9 spreadsheet (Corel Corporation, Austin, TX, USA).

athymic nude mice = assay: In vivo metabolic stability (radio-HPLC of mouse urine); details: urine collected at 2 h p.i.
Protocol: Athymic nude mice were utilized for the metabolism study to determine the potential radio-metabolites in the urine. An aliquot of urine sample was collected by manual void at the time of sacrifice and analyzed by radio-HPLC. […] The results signified that most of the radioactivity (>80%) was still bound to the ^68Ga-AngII peptide analog (Figure 2). There were no major metabolites detected in the urine sample at 2 h p.i. A small hydrophilic metabolite peak was found at about 4 min for the urine sample. This finding confirms that the ^68Ga-AngII peptide analog is not prone to fast in vivo disintegration and is also in agreement with the results of high in vitro complex strength.
To determine the radio-metabolites of the ^68Ga-labeled AngII peptide analog, an aliquot of urine sample was collected by manual void at the time of sacrifice and mixed with an equal volume of CH3CN. The mixture was centrifuged at 7000 rpm for 5 min. The resulting supernatant was collected and passed through a 0.20 μm Millex-LG filter unit to remove any precipitate or foreign particles and then analyzed by radio-HPLC.

Wash away from the tumors ([1]; MDA-MB-231 tumors in nude mice, over 2 h (45 min vs 2 h p.i.)): 43%
Clearance through the hepatobiliary system (liver + intestines) ([1]; tumor-bearing nude mice): below 7 % ID
Radioactivity still bound to the radiopeptide in urine (athymic nude mice): > 80%
SMILES: CC[C@H](C)[C@H](NC(=O)[C@H](Cc1ccc(O)cc1)NC(=O)[C@@H](NC(=O)[C@H](CCCNC(=N)N)NC(=O)[C@H](CC(=O)O)NC(=O)CCNC(=O)[C@H](CCCCN)NC(=O)CN1CCN(CC(=O)O)CCN(CC(=O)O)CCN(CC(=O)O)CC1)C(C)C)C(=O)N[C@@H](Cc1c[nH]cn1)C(=O)N1CCC[C@H]1C(=O)N[C@@H](Cc1ccccc1)C(=O)N[C@@H](Cc1c[nH]c2ccccc12)C(=O)N[C@@H](CCCCN)C(=O)N[C@@H](Cc1ccc(O)cc1)C(N)=O [^68Ga-DOTA-AngII peptide, metal not drawn] ({DOTA}-K[βAla]DRVYIHPFWKY-NH2)
